Reference: ChEMBL document CHEMBL1649540, “The novel CXCR4 antagonist KRH-3955 is an orally bioavailable and extremely potent inhibitor of human immunodeficiency virus type 1 infection: comparative studies with AMD3100” (Antimicrob Agents Chemother, 2009)
Active and inactive are the calls of the source. No cut-off for these calls is given here.

What was measured:
[1] = tested on: Human immunodeficiency virus 1; assay: Antiviral activity against PI-resistant HIV1 HXB2 infected in HEK293 cells assessed as inhibition of viral replication after 2 days; assay type: functional, organism-based; conditions: Human immunodeficiency virus 1, HXB2, HEK293, 48 h
[2] = target: C-X-C chemokine receptor type 1 (Homo sapiens) (UniProt P25024); assay: Displacement of [125I]IL8 form CXCR1 expressed in CHO cells by scintillation counting; assay type: cell-based
Sequence of C-X-C chemokine receptor type 1 (Homo sapiens) (P25024 whole entry): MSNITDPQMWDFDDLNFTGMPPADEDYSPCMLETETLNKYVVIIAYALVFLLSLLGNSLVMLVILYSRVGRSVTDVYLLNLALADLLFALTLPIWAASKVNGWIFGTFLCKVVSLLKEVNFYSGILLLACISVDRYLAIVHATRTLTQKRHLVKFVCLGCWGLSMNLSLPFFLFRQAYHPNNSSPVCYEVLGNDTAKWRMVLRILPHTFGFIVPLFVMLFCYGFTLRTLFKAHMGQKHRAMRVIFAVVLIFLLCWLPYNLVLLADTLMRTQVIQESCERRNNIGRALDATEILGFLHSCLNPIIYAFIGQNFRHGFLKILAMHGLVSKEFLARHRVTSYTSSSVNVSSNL

[3] = Oral bioavailability in Sprague-Dawley rat at 10 mg/kg administered as single dose; assay type: ADME, organism-based; conditions: in vivo
[4] = tested on: Human immunodeficiency virus 1; assay: Antiviral activity against NRTI-resistant HIV1 HXB2 infected in HEK293 cells assessed as inhibition of viral replication after 2 days; assay type: functional, organism-based; conditions: Human immunodeficiency virus 1, HXB2, HEK293, 48 h
[5] = tested on: C-X-C chemokine receptor type 4 (Homo sapiens), P61073 [D171A]; conditions: HEK293
Sequence of C-X-C chemokine receptor type 4 (Homo sapiens), P61073 [D171A] (P61073 whole entry D171A): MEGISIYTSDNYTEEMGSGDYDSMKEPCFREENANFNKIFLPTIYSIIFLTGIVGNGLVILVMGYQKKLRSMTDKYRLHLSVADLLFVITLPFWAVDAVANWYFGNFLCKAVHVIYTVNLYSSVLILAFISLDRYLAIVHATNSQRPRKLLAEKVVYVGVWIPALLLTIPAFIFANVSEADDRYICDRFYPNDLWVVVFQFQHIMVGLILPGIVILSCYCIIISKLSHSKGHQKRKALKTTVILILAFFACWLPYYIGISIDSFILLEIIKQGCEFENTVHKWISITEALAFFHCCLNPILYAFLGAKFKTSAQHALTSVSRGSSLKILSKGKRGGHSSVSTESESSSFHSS

[6] = target: C-X-C chemokine receptor type 4 (Homo sapiens, UniProt P61073, D181A); assay: (§1) Inhibition of Mab 12G5 binding to CXCR4 D181A mutant expressed in HEK293 cells; assay type: cell-based
Sequence of C-X-C chemokine receptor type 4 (Homo sapiens, UniProt P61073, D181A) (P61073 whole entry D181A): as the sequence (P61073 whole entry D171A) above, with A171D, D181A counted along it

[7] = tested on: C-X-C chemokine receptor type 4 (Homo sapiens), P61073 [D181A]; assay: as §1; assay type: cell-based
Sequence of C-X-C chemokine receptor type 4 (Homo sapiens), P61073 [D181A] (P61073 whole entry D181A): as the sequence (P61073 whole entry D171A) above, with A171D, D181A counted along it

[8] = target: C-X-C chemokine receptor type 4 (Homo sapiens, UniProt P61073, D262A)
Sequence of C-X-C chemokine receptor type 4 (Homo sapiens, UniProt P61073, D262A) (P61073 whole entry D262A): as the sequence (P61073 whole entry D171A) above, with A171D, D262A counted along it

[9] = Tmax in Sprague-Dawley rat at 10 mg/kg, po administered as single dose; conditions: in vivo
[10] = target: T1, C-X-C chemokine receptor type 4 (Homo sapiens, UniProt P61073); assay: Inhibition of Mab 12G5 binding to CXCR4 expressed in human MOLT4 cells at 10 nM measured post drug washout by FACS analysis; assay type: cell-based; conditions: MOLT-4
T1 sequence (P61073 whole entry): as the sequence (P61073 whole entry D171A) above, with A171D counted along it

[11] = tested on: Human immunodeficiency virus 1; assay: Antiviral activity against HIV1 NL4-3 infected in HEK293 cells assessed as inhibition of viral replication after 2 days; assay type: functional, organism-based; conditions: Human immunodeficiency virus 1, NL4-3, HEK293, 48 h
[12] = tested on: C-X-C chemokine receptor type 4 (Homo sapiens), P61073 [I284A]; assay: (§2) Inhibition of Mab 12G5 binding to CXCR4 I284A mutant expressed in HEK293 cells; assay type: cell-based
Sequence of C-X-C chemokine receptor type 4 (Homo sapiens), P61073 [I284A] (P61073 whole entry I284A): as the sequence (P61073 whole entry D171A) above, with A171D, I284A counted along it

[13] = target: C-X-C chemokine receptor type 4 (Homo sapiens, UniProt P61073, I284A); assay: as §2; assay type: cell-based
Sequence of C-X-C chemokine receptor type 4 (Homo sapiens, UniProt P61073, I284A) (P61073 whole entry I284A): as the sequence (P61073 whole entry D171A) above, with A171D, I284A counted along it

[14] = tested on: Human immunodeficiency virus 1; assay: Antiviral activity against multidrug resistant HIV1 HXB2 infected in HEK293 cells assessed as inhibition of viral replication after 2 days; assay type: functional, organism-based; conditions: Human immunodeficiency virus 1, HXB2, HEK293, 48 h
[15] = target: T1, C-X-C chemokine receptor type 4; assay: Inhibition of Mab A145 binding to CXCR4 expressed in human MOLT4 cells at 0.1 to 1000 nM by FACS analysis; assay type: cell-based; conditions: MOLT-4
[16] = tested on: Human immunodeficiency virus 1; assay: Antiviral activity against HIV1 NL4-3 infected in human PBMC assessed as inhibition of viral p24 antigen production after 7 to 10 days by ELISA; assay type: functional, organism-based; conditions: Human immunodeficiency virus 1, NL4-3
[17] = target: C-X-C chemokine receptor type 4 (Homo sapiens, UniProt P61073, H113A)
Sequence of C-X-C chemokine receptor type 4 (Homo sapiens, UniProt P61073, H113A) (P61073 whole entry H113A): as the sequence (P61073 whole entry D171A) above, with H113A, A171D counted along it

[18] = target: T1, C-X-C chemokine receptor type 4; assay: Inhibition of Mab A80 binding to CXCR4 expressed in human MOLT4 cells by FACS analysis; assay type: cell-based; conditions: MOLT-4
[19] = tested on: Human immunodeficiency virus 1; assay: Antiviral activity against T20-resistant HIV1 NL4-3 infected in HEK293 cells assessed as inhibition of viral replication after 2 days; assay type: functional, organism-based; conditions: Human immunodeficiency virus 1, NL4-3, HEK293, 48 h
[20] = AUC (0 to 336 hrs) in Sprague-Dawley rat at 10 mg/kg, po administered as single dose; assay type: ADME, organism-based; parameters: time < 336 hr, dose 10 mg/kg, route oral; conditions: plasma
[21] = tested on: Human immunodeficiency virus 1; assay: Antiviral activity against HIV1 A018H infected in human PBMC assessed as inhibition of viral p24 antigen production after 7 to 10 days by ELISA; assay type: functional, organism-based; conditions: Human immunodeficiency virus 1, A018H
[22] = Volume of distribution at steady state in Sprague-Dawley rat at 10 mg/kg, iv administered as single dose; assay type: ADME, organism-based; parameters: dose 10 mg/kg, route intravenous; conditions: in vivo
[23] = tested on: Human immunodeficiency virus 1; assay: Antiviral activity against HIV1 JRCSF infected in human PBMC assessed as inhibition of viral p24 antigen production after 7 to 10 days by ELISA; assay type: functional; conditions: Human immunodeficiency virus 1, JRCSF ISOLATE
[24] = target: T1, C-X-C chemokine receptor type 4; assay: Inhibition of Mab 12G5 binding to CXCR4 expressed in human MOLT4 cells at 10 nM measured after 6 hrs post drug washout by FACS analysis; assay type: cell-based; conditions: MOLT-4
[25] = target: C-X-C chemokine receptor type 4 (Homo sapiens, UniProt P61073, E288A/L290A)
Sequence of C-X-C chemokine receptor type 4 (Homo sapiens, UniProt P61073, E288A/L290A) (P61073 whole entry E288A/L290A): as the sequence (P61073 whole entry D171A) above, with A171D, E288A, L290A counted along it

[26] = Cmax in Sprague-Dawley rat at 10 mg/kg, po administered as single dose; assay type: ADME, organism-based; parameters: dose 10 mg/kg, route oral; conditions: in vivo
[27] = target: C-C chemokine receptor type 2 (Homo sapiens) (UniProt P41597); assay: Displacement of [125I]MCP1 form CCR2b expressed in CHO cells by scintillation counting; assay type: cell-based
Sequence of C-C chemokine receptor type 2 (Homo sapiens) (P41597 whole entry, looked up): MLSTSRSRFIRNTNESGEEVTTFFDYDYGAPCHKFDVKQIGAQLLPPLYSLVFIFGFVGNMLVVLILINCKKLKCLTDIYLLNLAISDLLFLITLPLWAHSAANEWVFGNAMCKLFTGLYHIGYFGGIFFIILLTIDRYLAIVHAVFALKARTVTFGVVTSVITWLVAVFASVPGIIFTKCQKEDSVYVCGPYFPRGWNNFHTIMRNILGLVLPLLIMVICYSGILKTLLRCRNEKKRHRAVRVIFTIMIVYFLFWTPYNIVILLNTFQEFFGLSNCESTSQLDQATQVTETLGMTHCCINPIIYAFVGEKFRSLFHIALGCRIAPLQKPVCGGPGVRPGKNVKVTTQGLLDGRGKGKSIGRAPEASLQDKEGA

[28] = target: T1, C-X-C chemokine receptor type 4; assay: Inhibition of Mab 12G5 binding to wild type CXCR4 expressed in HEK293 cells; assay type: cell-based
[29] = tested on: C-X-C chemokine receptor type 4 (Homo sapiens), P61073 [H113A]; conditions: HEK293
Sequence of C-X-C chemokine receptor type 4 (Homo sapiens), P61073 [H113A] (P61073 whole entry H113A): as the sequence (P61073 whole entry D171A) above, with H113A, A171D counted along it

[30] = tested on: Human immunodeficiency virus 1; assay: Antiviral activity against HIV1 R5 infected in human PBMC assessed as inhibition of viral p24 antigen production after 7 to 10 days by ELISA; assay type: functional, organism-based; conditions: Human immunodeficiency virus 1, R5
[31] = Half life in Sprague-Dawley rat at 10 mg/kg, iv administered as single dose; assay type: ADME, organism-based; parameters: dose 10 mg/kg, route intravenous; conditions: in vivo
[32] = target: C-X-C chemokine receptor type 4 (Homo sapiens, UniProt P61073, V280A); assay: (§3) Inhibition of Mab 12G5 binding to CXCR4 V280A mutant expressed in HEK293 cells; assay type: cell-based
Sequence of C-X-C chemokine receptor type 4 (Homo sapiens, UniProt P61073, V280A) (P61073 whole entry V280A): as the sequence (P61073 whole entry D171A) above, with A171D, V280A counted along it

[33] = tested on: C-X-C chemokine receptor type 4 (Homo sapiens), P61073 [V280A]; assay: as §3; assay type: cell-based
Sequence of C-X-C chemokine receptor type 4 (Homo sapiens), P61073 [V280A] (P61073 whole entry V280A): as the sequence (P61073 whole entry D171A) above, with A171D, V280A counted along it

[34] = tested on: Human immunodeficiency virus 1; assay: Antiviral activity against NNRTI-resistant HIV1 HXB2 infected in HEK293 cells assessed as inhibition of viral replication after 2 days; assay type: functional, organism-based; conditions: Human immunodeficiency virus 1, HXB2, HEK293, 48 h
[35] = target: T1, C-X-C chemokine receptor type 4; assay: Antagonist activity at CXCR4 expressed in CHO cells assessed as inhibition of SDF1-alpha-induced calcium mobilization by fluorescence assay; assay type: functional, cell-based
[36] = target: C-C chemokine receptor type 4 (Homo sapiens) (UniProt P51679); assay: Displacement of [125I]TARC form CCR4 expressed in CHO cells by scintillation counting; assay type: cell-based
Sequence of C-C chemokine receptor type 4 (Homo sapiens) (P51679 whole entry): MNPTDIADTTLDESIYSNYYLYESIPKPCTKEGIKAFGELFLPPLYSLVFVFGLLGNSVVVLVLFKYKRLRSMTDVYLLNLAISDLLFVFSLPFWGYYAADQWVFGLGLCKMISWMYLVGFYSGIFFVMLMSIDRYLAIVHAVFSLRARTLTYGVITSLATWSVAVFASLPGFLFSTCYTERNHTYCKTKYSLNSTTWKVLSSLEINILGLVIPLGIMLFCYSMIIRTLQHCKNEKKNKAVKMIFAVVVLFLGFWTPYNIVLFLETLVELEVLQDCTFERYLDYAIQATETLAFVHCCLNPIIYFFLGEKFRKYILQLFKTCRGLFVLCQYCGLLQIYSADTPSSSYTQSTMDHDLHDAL

[37] = tested on: Human immunodeficiency virus 1; assay: Antiviral activity against HIV1 NL4-3 infected in SCID mouse assessed as viral p24 antigen level in spleen at 10 mg/kg, po administered as single dose after 7 days; assay type: functional
[38] = tested on: C-X-C chemokine receptor type 4 (Homo sapiens), P61073 [W283A]; conditions: HEK293
Sequence of C-X-C chemokine receptor type 4 (Homo sapiens), P61073 [W283A] (P61073 whole entry W283A): as the sequence (P61073 whole entry D171A) above, with A171D, W283A counted along it

[39] = target: C-C chemokine receptor type 1 (Homo sapiens) (UniProt P32246); assay: Displacement of [125I]RANTES form CCR1 expressed in CHO cells by scintillation counting; assay type: cell-based
Sequence of C-C chemokine receptor type 1 (Homo sapiens) (P32246 whole entry): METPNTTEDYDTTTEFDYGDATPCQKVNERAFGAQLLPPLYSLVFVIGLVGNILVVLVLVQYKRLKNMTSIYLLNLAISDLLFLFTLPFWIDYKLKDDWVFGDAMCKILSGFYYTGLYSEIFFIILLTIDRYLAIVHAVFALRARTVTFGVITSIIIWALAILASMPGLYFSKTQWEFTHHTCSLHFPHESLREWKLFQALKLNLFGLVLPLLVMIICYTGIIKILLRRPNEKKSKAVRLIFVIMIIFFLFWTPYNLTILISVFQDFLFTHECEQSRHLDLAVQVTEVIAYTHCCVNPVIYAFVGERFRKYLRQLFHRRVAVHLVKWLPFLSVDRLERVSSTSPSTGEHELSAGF

CCCN(CCC)CCCCN(C)Cc1ccc(CN(Cc2ncc[nH]2)Cc2nccn2C)cc1.O=C(O)C(O)C(O)C(=O)O
IC50 [1]: 0.7 nM
Activity [2]: inactive
bioavailability [3]: 25.6%
IC50 [4]: 0.6 nM
IC90 [5]: > 10 nM
IC50 [6]: 0.5 nM
IC90 [7]: 5.1 nM
IC50 [8]: 1.6 nM
Tmax [9]: 2.3 h
inhibition [10]: Active
IC50 [11]: 0.5 nM
IC90 [12]: 6.8 nM
IC50 [13]: 1.2 nM
IC50 [14]: 0.7 nM
inhibition [15]: inactive
EC50 [16]: 1.1 nM
IC50 [17]: 0.8 nM
inhibition [18]: Dose-dependent effect
IC50 [19]: 0.4 nM
AUC(0-t) at 336 h [20]: 325 ng·h/mL
EC50 [21]: 1.4 nM
Vd [22]: 374 L/kg
EC50 [23]: > 200 nM
inhibition [24]: 40%
IC50 [25]: 1.6 nM
Cmax [26]: 86.3 ng/mL
Activity [27]: inactive
IC50 [28]: 2.8 nM
IC90 [28]: 8.2 nM
IC90 [29]: 6.3 nM
EC50 [30]: > 200 nM
half-life [31]: 4.12 days
IC50 [32]: 1 nM
IC90 [33]: 6.1 nM
IC50 [34]: 0.8 nM
inhibition [35]: Dose-dependent effect
Activity [36]: inactive
Activity [37]: <5 pg/mL
IC90 [38]: 6.9 nM
Activity [39]: inactive
